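Grown in 96-well plates, cells were treated for 48 hours with each compound at five concentrations. Insufficient inhibition: endpoint recorded as highest concentration tested. TGI marks complete inhibition of growth.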
How the values were obtained:
Assay in all cases: DTP human tumour cell line panel, 48 h
786-0 renal = system: 786-0 renal
A498 renal = system: A498 renal
A549 NSCLC = system: A549 NSCLC
ACHN renal = system: ACHN renal
BT-549 breast = system: BT-549 breast
CAKI-1 renal = system: CAKI-1 renal
CCRF-CEM leukemia = system: CCRF-CEM leukemia
COLO 205 colon = system: COLO 205 colon
DU-145 prostate = system: DU-145 prostate
EKVX NSCLC = system: EKVX NSCLC
HCC-2998 colon = system: HCC-2998 colon
HCT-116 colon = system: HCT-116 colon
HCT-15 colon = system: HCT-15 colon
HOP-62 NSCLC = system: HOP-62 NSCLC
HOP-92 NSCLC = system: HOP-92 NSCLC
HS 578T breast = system: HS 578T breast
HT29 colon = system: HT29 colon
IGROV1 ovarian = system: IGROV1 ovarian
K-562 leukemia = system: K-562 leukemia
KM12 colon = system: KM12 colon
M14 melanoma = system: M14 melanoma
MALME-3M melanoma = system: MALME-3M melanoma
MCF7 breast = system: MCF7 breast
MDA-MB-231 breast = system: MDA-MB-231 breast
MDA-MB-435 = system: MDA-MB-435
MDA-N = system: MDA-N
MOLT-4 leukemia = system: MOLT-4 leukemia
NCI-H226 lung = system: NCI-H226 lung
NCI-H23 lung = system: NCI-H23 lung
NCI-H460 lung = system: NCI-H460 lung
NCI-H522 lung = system: NCI-H522 lung
NCI/ADR-RES ovarian = system: NCI/ADR-RES ovarian
OVCAR-3 ovarian = system: OVCAR-3 ovarian
OVCAR-4 ovarian = system: OVCAR-4 ovarian
OVCAR-5 ovarian = system: OVCAR-5 ovarian
PC-3 prostate = system: PC-3 prostate
RXF 393 renal = system: RXF 393 renal
SF-268 CNS = system: SF-268 CNS
SF-295 CNS = system: SF-295 CNS
SK-MEL-2 melanoma = system: SK-MEL-2 melanoma
SK-MEL-28 melanoma = system: SK-MEL-28 melanoma
SK-MEL-5 melanoma = system: SK-MEL-5 melanoma
SK-OV-3 ovarian = system: SK-OV-3 ovarian
SN12C renal = system: SN12C renal
SNB-19 CNS = system: SNB-19 CNS
SNB-75 CNS = system: SNB-75 CNS
SR leukemia = system: SR leukemia
SW-620 colon = system: SW-620 colon
T-47D breast = system: T-47D breast
TK-10 renal = system: TK-10 renal
U251 CNS = system: U251 CNS
UACC-257 melanoma = system: UACC-257 melanoma
UACC-62 melanoma = system: UACC-62 melanoma
UO-31 renal = system: UO-31 renal
LOX IMVI melanoma = system: LOX IMVI melanoma
OVCAR-8 ovarian = system: OVCAR-8 ovarian
RPMI-8226 leukemia = system: RPMI-8226 leukemia
SF-539 CNS = system: SF-539 CNS

`CCCCCCCCC/C=C1\CC(CO)(COC(=O)c2ccccc2)OC1=O` (stereo unspecified) gave a TGI (786-0 renal) of 39.8 µM, a TGI (A498 renal) of 58.3 µM and a TGI (A549 NSCLC) of 52.9 µM. It also gave a TGI (ACHN renal) of over 100 µM, a TGI (BT-549 breast) of 52.1 µM and a TGI (CAKI-1 renal) of 52.5 µM. The TGI (CCRF-CEM leukemia) was over 100 µM, the TGI (COLO 205 colon) was 33 µM and the TGI (DU-145 prostate) was over 100 µM. It also gave a TGI (EKVX NSCLC) of 34 µM, a TGI (HCC-2998 colon) of 39.3 µM and a TGI (HCT-116 colon) of 52.8 µM. The TGI (HCT-15 colon) was 35.5 µM, the TGI (HOP-62 NSCLC) was 29.8 µM and the TGI (HOP-92 NSCLC) was 30.4 µM. It also gave a TGI (HS 578T breast) of 40.2 µM, a TGI (HT29 colon) of 35.3 µM and a TGI (IGROV1 ovarian) of 70.4 µM. It also gave a TGI (K-562 leukemia) of over 100 µM, a TGI (KM12 colon) of 57.2 µM and a TGI (M14 melanoma) of 36.6 µM. For the same compound, the TGI (MALME-3M melanoma) was 39.5 µM, the TGI (MCF7 breast) was 48.9 µM and the TGI (MDA-MB-231 breast) was 40.4 µM. For the same compound, the TGI (MDA-MB-435) was 36.3 µM, the TGI (MDA-N) was 43.1 µM and the TGI (MOLT-4 leukemia) was over 100 µM. It also gave a TGI (NCI-H226 lung) of 57.9 µM, a TGI (NCI-H23 lung) of 41.9 µM and a TGI (NCI-H460 lung) of 47.6 µM. The TGI (NCI-H522 lung) was 33.4 µM, the TGI (NCI/ADR-RES ovarian) was 51.9 µM and the TGI (OVCAR-3 ovarian) was 43.1 µM. For the same compound, the TGI (OVCAR-4 ovarian) was over 100 µM, the TGI (OVCAR-5 ovarian) was 33.2 µM and the TGI (PC-3 prostate) was 34.7 µM. The TGI (RXF 393 renal) was 47.4 µM, the TGI (SF-268 CNS) was 54 µM and the TGI (SF-295 CNS) was 39 µM. For the same compound, the TGI (SK-MEL-2 melanoma) was over 100 µM, the TGI (SK-MEL-28 melanoma) was 31.8 µM and the TGI (SK-MEL-5 melanoma) was 28.6 µM. For the same compound, the TGI (SK-OV-3 ovarian) was 43.3 µM, the TGI (SN12C renal) was 49.7 µM and the TGI (SNB-19 CNS) was 40.2 µM. For the same compound, the TGI (SNB-75 CNS) was 38.3 µM, the TGI (SR leukemia) was over 100 µM and the TGI (SW-620 colon) was 34.2 µM. The TGI (T-47D breast) was 72.6 µM, the TGI (TK-10 renal) was 44.4 µM and the TGI (U251 CNS) was 39.5 µM. The TGI (UACC-257 melanoma) was 79.9 µM, the TGI (UACC-62 melanoma) was 79.4 µM and the TGI (UO-31 renal) was 32.8 µM.

`C/C(N=Nc1nc2ccccc2o1)=C1/C=CC=CN1O` showed a TGI (786-0 renal) of over 100 µM, a TGI (A498 renal) of over 100 µM and a TGI (A549 NSCLC) of over 100 µM. For the same compound, the TGI (ACHN renal) was over 100 µM, the TGI (BT-549 breast) was over 100 µM and the TGI (CAKI-1 renal) was 29 µM. For the same compound, the TGI (CCRF-CEM leukemia) was over 100 µM, the TGI (COLO 205 colon) was over 100 µM and the TGI (DU-145 prostate) was over 100 µM. It also gave a TGI (EKVX NSCLC) of 24.3 µM, a TGI (HCC-2998 colon) of 24.5 µM and a TGI (HCT-116 colon) of over 100 µM. The TGI (HCT-15 colon) was over 100 µM, the TGI (HOP-62 NSCLC) was over 100 µM and the TGI (HOP-92 NSCLC) was 39.7 µM. The TGI (HS 578T breast) was over 100 µM, the TGI (HT29 colon) was over 100 µM and the TGI (IGROV1 ovarian) was over 100 µM. The TGI (K-562 leukemia) was over 100 µM, the TGI (KM12 colon) was over 100 µM and the TGI (LOX IMVI melanoma) was over 100 µM. It also gave a TGI (M14 melanoma) of over 100 µM, a TGI (MALME-3M melanoma) of 12.2 µM and a TGI (MCF7 breast) of 81.2 µM. For the same compound, the TGI (MDA-MB-231 breast) was over 100 µM, the TGI (MDA-MB-435) was over 100 µM and the TGI (MDA-N) was over 100 µM. The TGI (MOLT-4 leukemia) was 6.3 µM, the TGI (NCI-H226 lung) was over 100 µM and the TGI (NCI-H23 lung) was over 100 µM. It also gave a TGI (NCI-H460 lung) of over 100 µM, a TGI (NCI-H522 lung) of 26.7 µM and a TGI (NCI/ADR-RES ovarian) of 89.1 µM. The TGI (OVCAR-3 ovarian) was 7.69 µM, the TGI (OVCAR-4 ovarian) was over 100 µM and the TGI (OVCAR-5 ovarian) was 28.1 µM. The TGI (OVCAR-8 ovarian) was over 100 µM, the TGI (PC-3 prostate) was over 100 µM and the TGI (RPMI-8226 leukemia) was over 100 µM. It also gave a TGI (RXF 393 renal) of over 100 µM, a TGI (SF-268 CNS) of over 100 µM and a TGI (SF-295 CNS) of 10.1 µM. It also gave a TGI (SF-539 CNS) of 62 µM, a TGI (SK-MEL-2 melanoma) of over 100 µM and a TGI (SK-MEL-28 melanoma) of over 100 µM. For the same compound, the TGI (SK-MEL-5 melanoma) was over 100 µM, the TGI (SK-OV-3 ovarian) was over 100 µM and the TGI (SN12C renal) was over 100 µM. For the same compound, the TGI (SNB-19 CNS) was over 100 µM, the TGI (SR leukemia) was 19.5 µM and the TGI (SW-620 colon) was over 100 µM. The TGI (T-47D breast) was over 100 µM, the TGI (TK-10 renal) was 34.9 µM and the TGI (U251 CNS) was over 100 µM. It also gave a TGI (UACC-257 melanoma) of over 100 µM, a TGI (UACC-62 melanoma) of over 100 µM and a TGI (UO-31 renal) of over 100 µM.
